pIC50: −log10 of the molar value.
How the values were obtained:
5-HT2A receptors = 5-HT2A receptors (Rattus norvegicus, UniProt P14842); test: in-vitro affinity to 5-HT2A receptors, displacement of [3H]ketanserine (Example A1); format: binding; details: read-out: HT2A IC50
Source text: The 5-HT2A receptors are exposed both to [^3H]ketanserine (a substance which is known for its affinity to the receptor) and also to the test compound. The decrease in the affinity of [^3H]ketanserine to the receptor is an indication of the affinity of the test substance to the 5-HT2A receptor.

5 HT2C receptor = target: T1, 5 HT2C receptor (Homo sapiens, UniProt P28335); test: affinity to the 5 HT2C receptor; format: binding
T1 sequence (P28335 33-458): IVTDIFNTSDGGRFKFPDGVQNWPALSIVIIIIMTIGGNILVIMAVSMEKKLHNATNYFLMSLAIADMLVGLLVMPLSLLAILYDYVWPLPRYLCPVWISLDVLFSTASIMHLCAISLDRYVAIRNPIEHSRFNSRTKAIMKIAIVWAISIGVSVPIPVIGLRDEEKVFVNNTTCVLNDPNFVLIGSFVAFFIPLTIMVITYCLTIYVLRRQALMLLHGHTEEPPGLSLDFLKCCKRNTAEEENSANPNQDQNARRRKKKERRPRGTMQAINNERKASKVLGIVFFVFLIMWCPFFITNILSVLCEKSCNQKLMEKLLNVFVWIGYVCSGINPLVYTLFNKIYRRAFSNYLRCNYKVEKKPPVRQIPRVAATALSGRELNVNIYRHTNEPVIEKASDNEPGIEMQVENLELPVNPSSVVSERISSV

Chain of 5-HT2A receptors (P14842 whole entry): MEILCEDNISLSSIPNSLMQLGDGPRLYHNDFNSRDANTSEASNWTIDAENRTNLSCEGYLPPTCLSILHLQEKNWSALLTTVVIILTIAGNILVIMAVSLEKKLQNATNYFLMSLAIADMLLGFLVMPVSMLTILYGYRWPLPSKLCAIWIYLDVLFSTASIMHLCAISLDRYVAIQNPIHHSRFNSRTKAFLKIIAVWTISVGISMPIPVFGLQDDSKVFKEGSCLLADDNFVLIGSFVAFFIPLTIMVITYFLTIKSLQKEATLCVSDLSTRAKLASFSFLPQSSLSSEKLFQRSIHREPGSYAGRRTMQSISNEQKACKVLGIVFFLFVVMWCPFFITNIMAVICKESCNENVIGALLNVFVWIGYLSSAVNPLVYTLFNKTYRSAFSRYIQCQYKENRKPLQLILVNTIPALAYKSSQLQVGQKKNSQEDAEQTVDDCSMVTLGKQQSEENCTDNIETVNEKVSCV

Compound | pIC50 (5-HT2A receptors) | pIC50 (5 HT2C receptor)
CC(C)(C)OC(=O)N1CCN(Cc2cnn(-c3ccc(C(F)(F)F)cc3)c2-c2ccccc2F)CC1 [Example 896, tert-Butyl 4-[5-(2-fluorophenyl)-1-(4-trifluoro-methylphenyl)-1H-pyrazol-4-ylmethyl]-piperazine-1-carboxylate] | 8.10 | 4.37
CN1CCN(CCc2cnn(-c3ccc(-c4ccc(F)cc4)cc3)c2-c2ccccc2F)CC1 [Example 921, 1-{2-[1-(4′-Fluorobiphenyl-4-yl)-5-(2-fluoro-phenyl)-1H-pyrazol-4-yl]ethyl}-4-methylpiperazine] | 7.63 | 6.14
Fc1ccccc1-c1c(CN2CCCC2)cnn1-c1ccc(-c2ccccc2)cc1 [Example 934, 1-Biphenyl-4-yl-5-(2-fluorophenyl)-4-pyrrolidin-1-ylmethyl-1H-pyrazole] | 7.49 | 6.00
OC1CCN(CCc2cnn(-c3ccc(-c4ccc(F)cc4)cc3)c2-c2ccccc2F)C1 (centres unmarked) [Example 913, 1-{2-[1-(4′-Fluorobiphenyl-4-yl)-5-(2-fluoro-phenyl)-1H-pyrazol-4-yl]ethyl}pyrrolidin-3-ol] | 7.70 | 6.21
Fc1ccc(CCN2CCN(Cc3cnn(-c4ccccn4)c3-c3ccccc3F)CC2)c(F)c1 [Example 919, 1-[2-(2,4-Difluorophenyl)ethyl]-4-[5-(2-fluoro-phenyl)-1-pyridin-2-yl-1H-pyrazol-4-ylmethyl]-piperazine] | 7.64 | 6.00
O=C1CCCN1CCCNCc1cnn(-c2ccc(-c3ccccc3)cc2)c1-c1ccccc1F [Example 961, 1-(3-{[1-Biphenyl-4-yl-5-(2-fluoro-phenyl)-1H-pyrazol-4-ylmethyl]amino}propyl)pyrrolidin-2-one] | 7.19 | 6.00
COc1ccccc1-c1c(CN2CCN(C)CC2)cnn1-c1ccc(-c2ccsc2)cc1 [Example 1055, 1-[5-(2-Methoxyphenyl)-1-(4-thiophen-3-yl-phenyl)-1H-pyrazol-4-ylmethyl]-4-methyl-piperazine] | 6.34 | 6.52
CN(C)Cc1cnn(-c2ccc(C(F)(F)F)cn2)c1-c1ccccc1F [Example 937, [5-(2-Fluorophenyl)-1-(5-trifluoro-methylpyridin-2-yl)-1H-pyrazol-4-ylmethyl]dimethylamine] | 7.46 | 6.00
Cc1ccc(-c2ccc(-n3ncc(CN4CCN(C)CC4)c3-c3ccccc3F)cc2)cc1 [Example 916, 1-[5-(2-Fluorophenyl)-1-(4′-methylbiphenyl-4-yl)-1H-pyrazol-4-ylmethyl]-4-methylpiperazine] | 7.66 | 6.02
CN1CCN(Cc2cnn(-c3ccc(-c4ccc(F)c(F)c4)cc3)c2-c2ccccc2F)CC1 [Example 960, 1-[1-(3′,4′-Difluorobiphenyl-4-yl)-5-(2-fluoro-phenyl)-1H-pyrazol-4-ylmethyl]-4-methyl-piperazine] | 7.22 | 6.47
CN1CCN(Cc2cnn(-c3ccc(-c4ccc(C#N)cc4)cc3)c2-c2ccccc2F)CC1 [Example 952, 4′-[5-(2-Fluorophenyl)-4-(4-methyl-piperazin-1-ylmethyl)pyrazol-1-yl]biphenyl-4-carbonitrile] | 7.28 | 6.10
CC(C)(C)OC(=O)N1CCN(Cc2cnn(-c3ccc(-c4ccccc4)cc3)c2-c2ccccc2F)CC1 [Example 971, tert-Butyl 4-[1-biphenyl-4-yl-5-(2-fluoro-phenyl)-1H-pyrazol-4-ylmethyl]piperazine-1-carboxylate] | 7.09 | 6.00
Cn1ccnc1CNCc1cnn(-c2ccc(-c3ccccc3)cc2)c1-c1ccccc1 [Example 942, (1-Biphenyl-4-yl-5-phenyl-1H-pyrazol-4-yl-methyl)-(1-methyl-1H-imidazol-2-ylmethyl)-amine] | 7.41 | 6.00
CN1CCN(Cc2cnn(-c3ccc(-c4ccc(F)cc4)cc3)c2-c2ccc(F)cc2)CC1 [Example 923, 1-[1-(4′-Fluorobiphenyl-4-yl)-5-(4-fluoro-phenyl)-1H-pyrazol-4-ylmethyl]-4-methylpiperazine] | 7.60 | 6.12
CN1CCN(Cc2cnn(-c3ccc(-c4ccccc4)cc3)c2-c2ccccc2F)CC1 [Example 926, 1-[1-Biphenyl-4-yl-5-(2-fluoro-phenyl)-1H-pyrazol-4-ylmethyl]-4-methylpiperazine] | 7.56 | 6.22
NCc1cnn(-c2ccc(-c3ccccc3)cc2)c1-c1ccccc1 [Example 915, C-(1-Biphenyl-4-yl-5-phenyl-1H-pyrazol-4-yl)-methylamine] | 7.68 | 6.04

Compound | pIC50 (5-HT2A receptors) | pIC50 (5 HT2C receptor)
CN1CCN(Cc2cnn(-c3ccc(C(F)(F)F)cc3)c2-c2ccccc2F)CC1 [Example 990, 1-[5-(2-Fluorophenyl)-1-(4-trifluoro-methyl-phenyl)-1H-pyrazol-4-ylmethyl]-4-methyl-piperazine] | 6.88 | 6.31
Fc1ccccc1-c1c(CN2CCc3ccccc3C2)cnn1-c1ccc(-c2ccccc2)cc1 [Example 964, 2-[1-Biphenyl-4-yl-5-(2-fluoro-phenyl)-1H-pyrazol-4-ylmethyl]-1,2,3,4-tetrahydro-iso-quinoline] | 7.15 | 6.00
CN1CCN(Cc2cnn(-c3ccc(C(F)(F)F)cn3)c2-c2ccccc2F)CC1 [Example 941, 1-[5-(2-Fluorophenyl)-1-(5-trifluoro-methylpyridin-2-yl)-1H-pyrazol-4-ylmethyl]-4-methyl-piperazine] | 7.41 | 6.00
COCCNCc1cnn(-c2ccc(-c3ccccc3)cc2)c1-c1ccccc1F [Example 905, [1-Biphenyl-4-yl-5-(2-fluorophenyl)-1H-pyrazol-4-ylmethyl]-(2-methoxyethyl)amine] | 7.80 | 6.00
CN(C)CCN(C)Cc1cnn(-c2ccc(-c3ccc(F)cc3)cc2)c1-c1ccc(Cl)cc1 [Example 1024, N-[5-(4-Chlorophenyl)-1-(4′-fluoro-biphenyl-4-yl)-1H-pyrazol-4-ylmethyl]-N,N′,N′-trimethyl-ethane-1,2-diamine] | 6.62 | 6.00
CN1CCN(Cc2cnn(-c3ccc(OC(F)(F)F)cc3)c2-c2ccccc2F)CC1 [Example 1029, 1-[5-(2-Fluorophenyl)-1-(4-trifluoromethoxy-phenyl)-1H-pyrazol-4-ylmethyl]-4-methyl-piperazine] | 6.57 | 6.31
CN1CCN(Cc2cnn(-c3ccc(-c4ccc5c(c4)OCCO5)cc3)c2-c2ccccc2F)CC1 [Example 901, 1-[1-[4-(2,3-Dihydrobenzo[1,4]dioxin-6-yl)-phenyl]-5-(2-fluorophenyl)-1H-pyrazol-4-yl-methyl]-4-methyl-piperazine] | 7.89 | 6.06
CN(CCO)Cc1cnn(-c2ccc(-c3ccccc3)cc2)c1-c1ccccc1F [Example 906, 2-{[1-Biphenyl-4-yl-5-(2-fluorophenyl)-1H-pyrazol-4-ylmethyl]methylamino}ethanol] | 7.80 | 6.00
O=C(c1ccc(F)cc1)C1CCN(Cc2cnn(-c3ccc(-c4ccc(F)cc4)cc3)c2-c2ccccc2Cl)CC1 [Example 1019, 1-{1-{5-(2-Chlorophenyl)-1-(4′-fluoro-biphenyl-4-yl)-1H-pyrazol-4-ylmethyl]piperidin-4-yl}-1-(4-fluorophenyl)methanone] | 6.64 | 7.40
CN(C)CCN(C)Cc1cnn(-c2ccc(-c3ccccc3)cc2)c1-c1ccccc1F [Example 912, N-[1-Biphenyl-4-yl-5-(2-fluorophenyl)-1H-pyrazol-4-ylmethyl]-N,N′,N′-trimethylethane-1,2-diamine] | 7.70 | 6.04
CN1CCN(Cc2cnn(-c3ccc(-c4ccccc4F)cc3)c2-c2ccccc2F)CC1 [Example 976, 1-[1-(2′-Fluorobiphenyl-4-yl)-5-(2-fluoro-phenyl)-1H-pyrazol-4-ylmethyl]-4-methyl-piperazine] | 7.03 | 6.43
CN1CCN(Cc2cnn(-c3ccc(-c4cc(F)ccc4F)cc3)c2-c2ccccc2F)CC1 [Example 953, 1-[1-(2′,5′-Difluorobiphenyl-4-yl)-5-(2-fluoro-phenyl)-1H-pyrazol-4-ylmethyl]-4-methyl-piperazine] | 7.26 | 6.33
CN1CCCN(Cc2cnn(-c3ccc(-c4ccccc4)cc3)c2-c2ccccc2F)CC1 [Example 893, 1-[1-Biphenyl-4-yl-5-(2-fluorophenyl)-1H-pyrazol-4-ylmethyl]-4-methyl-[1,4]diazepam] | 8.19 | 6.64
O=S1(=O)CCN(Cc2cnn(-c3ccc(-c4ccccc4)cc3)c2-c2ccccc2F)CC1 [Example 945, 4-[1-Biphenyl-4-yl-5-(2-fluorophenyl)-1H-pyrazol-4-ylmethyl]thiomorpholine 1,1-dioxide] | 7.37 | 6.00
Fc1ccccc1-c1c(CNCc2nc3ccccc3[nH]2)cnn1-c1ccc(-c2ccccc2)cc1 [Example 969, (1H-Benzoimidazol-2-ylmethyl)-[1-biphenyl-4-yl-5-(2-fluorophenyl)-1H-pyrazol-4-ylmethyl]-amine] | 7.12 | 6.00
